Earlier results on one substance are cited in patent US20060062074A1, “Method for intracellular modifications within living cells using pulsed electric fields” (priority 2001, published 2006).

For the data set, the system named is a variety of cell lines. Conditions: 0.0075% Triton X-100; positive control; literature (Borner et al. 1994).

As for Triton X-100, the induction of apoptosis result is recorded as “induce apoptosis”.
